Laboratory results from patent US10227358B2, “Hydroxyester derivatives, a process for their preparation and pharmaceutical compositions containing them” (LES LABORATOIRES SERVIER, priority 2015, dated 2019).

Experiments:
Mcl-1 protein = Mcl-1 protein (UniProtKB Q07820) (Homo sapiens, UniProt Q07820); assay: Inhibition of Mcl-1 by the fluorescence polarisation technique; format: binding; conditions: fluorescein labelled ligand 1 nM, Mcl-1 protein 5 nM, ~2 hours at room temperature; read-out: IC50 (μM) Mcl-1 FP
Method: The relative binding potency of each compound was determined via Fluorescence Polarisation (FP). The method utilised a Fluorescein labelled ligand (Fluorescein-βAla-Ahx-A-REIGAQLRRMADDLNAQY-OH; mw 2,765) which binds to the Mcl-1 protein (such that Mcl-1 corresponds to the UniProtKB® primary accession number: Q07820) leading to an increased anisotropy measured in milli-polarisation (mP) units using a reader. The addition of a compound which binds competitively to the same site as the ligand will result in a greater proportion of unbound ligand in the system indicated by a decrease in mP units.
An 11 point serial dilution of each compound was prepared in DMSO and 2 μl transferred into flat bottomed, low binding, 384-well plate (final DMSO concentration 5%). 38 μl of buffer (10 mM 4-(2-hydroxyethyl)-1-piperazineethanesulfonic acid [HEPES], 150 mM NaCl, 0.05% Tween 20, pH 7.4), containing the Fluorescein labelled ligand (final concentration 1 nM) and Mcl-1 protein (final concentration 5 nM) was then added.
Assay plates were incubated ˜2 hours at room temperature before FP was measured on a […] Synergy2 reader (Ex. 528 nm, Em. 640 nm, Cut off 510 nm) and mP units calculated. The binding of increasing doses of test compound was expressed as a percentage reduction in mP compared to a window established between ‘5% DMSO only’ and ‘100% inhibition’ controls. 11-point dose response curves were plotted with XL-Fit software using a 4-Parameter Logistic Model (Sigmoidal Dose-Response Model) and the inhibitory concentrations that gave a 50% reduction in mP (IC50) were determined.

[1] = test system: H929 multiple myeloma tumour line; assay: In vitro cytotoxicity (MTT, Microculture Tetrazolium Assay); format: cell-based; conditions: Homo sapiens, NCI-H929; H929 cells, 48 hours exposure, cell viability
Method: The cytotoxicity studies were carried out on the H929 multiple myeloma tumour line.
The cells are distributed onto microplates and exposed to the test compounds for 48 hours.
The cell viability is then quantified by a colorimetric assay, the Microculture Tetrazolium Assay (Cancer Res., 1987, 47, 939-942).

Mcl-1 protein, sequence (Q07820 whole entry): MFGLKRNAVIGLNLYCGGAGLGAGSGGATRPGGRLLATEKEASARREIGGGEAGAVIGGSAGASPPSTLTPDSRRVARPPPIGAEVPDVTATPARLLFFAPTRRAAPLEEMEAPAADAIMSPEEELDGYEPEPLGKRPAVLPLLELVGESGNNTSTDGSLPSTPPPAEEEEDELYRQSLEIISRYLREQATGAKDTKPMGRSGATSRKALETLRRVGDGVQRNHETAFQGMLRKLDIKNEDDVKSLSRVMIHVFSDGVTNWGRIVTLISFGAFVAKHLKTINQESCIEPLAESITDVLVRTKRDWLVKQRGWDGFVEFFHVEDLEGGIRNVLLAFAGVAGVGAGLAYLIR

CCOC(=O)OC(C)OC(=O)[C@@H](Cc1ccccc1OCc1ccnc(-c2ccccc2OC)n1)Oc1ncnc2sc(-c3ccc(F)cc3)c(-c3c(C)c(Cl)c(OCCN4CCN(C)CC4)c(Cl)c3C)c12 (stereo partly drawn) [Example 15, 1-[(ethoxycarbonyl)oxy]ethyl (2R)-2-{[5-{3,5-dichloro-2,6-dimethyl-4-[2-(4-methylpiperazin-1-yl)ethoxy]phenyl}-6-(4-fluorophenyl)thieno[2,3-d]pyrimidin-4-yl]oxy}-3-(2-{[2-(2-methoxyphenyl)pyrimidin-4-yl]methoxy}phenyl)propanoate]
IC50 (Mcl-1 protein): 0.453 µM | IC50 [1]: 0.068 µM
